In patent US20240247031A1, “COMPOSITION FOR TREATING CANCER CONTAINING TELOMERASE-TARGETING GNRH ANTAGONIST-DERIVED PEPTIDE HS1002” (Research & Business Foundation Sungkyunkwan University, priority 2023, published 2024):

Key:
[1] = tested on: c-Myc, AKT, ERK1/2 in LNCaP tumor xenografts; assay: Western blot of c-Myc and signaling proteins in LNCaP-xenografted tumors (FIG. 14); assay type: in vivo, mouse; settings: LNCaP xenograft; HS1002 1 mg/kg/day, LA 0.1 mg/kg/day s.c.
Protocol: The cells and tumor tissues were homogenized using the PRO-PREP™ extraction solution (iNtRON Biotechnology, Seongnam, Korea). After incubation, the homogenate was centrifuged at 16,000×g for 20 min at 4° C., and the supernatant was collected for western blot analysis. Subsequently, an equivalent quantity of protein was separated using sodium dodecyl sulfate polyacrylamide gels and transferred onto a polyvinylidene difluoride (PVDF) membrane. The PVDF membranes were incubated with the primary antibodies overnight at 4° C., washed with tris-buffered saline, and then incubated with HRP-conjugated anti-mouse or anti-rabbit antibodies. The bands were visualized using a ChemiDoc imaging system (Bio-Rad, Hercules, CA, USA). The band intensities were determined using an Image J software.
All mice were purchased from Central Lab Animal Inc. ([…]). They were raised in a 12 h environmental light/dark cycle with controlled temperature (22±2° C.) conditions. The experimental protocol was approved by the Sungkyunkwan University Institutional Animal Care and Use Committee (SKKUIACUC2021-06-27-1, SKKUIACUC2023-01-07-1). For the establishment of tumors, LNCaP (1×10^7), MC38 (2×10^5), and 4T1 (1×10^6) suspended in serum-free media containing 50% Matrigel was subcutaneously administered in the right flank of mice, respectively. The tumor volumes (V) were calculated using a caliper and the standard equation: V (mm^3)=0.52 (ab^2) (a=length, b=width). Once the tumor reached 100-200 mm^3, the mice were randomly divided into different groups and subcutaneously injected with a vehicle or each peptide every day.
To investigate the anticancer effect of HS1002, the present inventors observed the volume of cancer cells after transplanting the cancer cells into experimental animals. Specifically, mice (4-week-old male BALB/c nude mice; Central Lab. Animal Inc., Seoul, Korea) were prepared, and tumor cells (1×10^7 LNCaP cells) suspended in 1 mL of a serum-free medium containing 50% Matrigel were percutaneously injected into the upper flank of each nude mouse. When the tumor cell volume reached about 200 mm^3, the mice were randomly assigned to a vehicle control group, a leuprolide acetate-treated group, and test groups (GV1001-treated group and HS1002-treated group), respectively. Leuprolide acetate (0.1 mg/kg/day) and GV1001 and HS1002 (1 mg/kg/day) were injected subcutaneously for 13 days.

HEK293-GnRHR cells [2] = biological target: T1, HEK293-GnRHR cells (Homo sapiens, UniProt P30968); assay: Intracellular calcium flux assay; assay type: cell-based; settings: 100 nM
T1 construct: GFP; expressed in transfected cells
T1 sequence (P30968 1-328): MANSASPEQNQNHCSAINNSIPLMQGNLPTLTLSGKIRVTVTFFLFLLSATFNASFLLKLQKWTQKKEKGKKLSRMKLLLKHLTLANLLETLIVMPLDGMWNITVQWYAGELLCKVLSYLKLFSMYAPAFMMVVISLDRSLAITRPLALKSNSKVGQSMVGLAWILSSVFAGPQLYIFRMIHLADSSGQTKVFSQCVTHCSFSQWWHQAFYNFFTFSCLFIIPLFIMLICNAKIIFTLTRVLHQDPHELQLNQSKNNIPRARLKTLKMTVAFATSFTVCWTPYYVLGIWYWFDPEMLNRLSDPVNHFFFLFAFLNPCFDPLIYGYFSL
Protocol: (§1) Human embryonic kidney cell line (HEK293), and mouse cancer cell lines (MC38, 4T1) were purchased from the American Type Culture Collection (Manassas, VA, USA). All cell lines were grown in Dulbecco's Modified Essential Medium (DMEM) or Roswell Park Memorial Institute (RPMI) 1640 supplemented with 10% FBS, 100 U/mL penicillin, and 100 μg/mL streptomycin (WelGENE, Daegu, South Korea) in a humidified atmosphere of 5% CO2 at 37° C. To obtain GnRHR-overexpressing HEK293 (HEK293-GnRHR) cells, transfection of the pCMV-AC-GFP-GnRHR vector (HEK293-GnRHR) was performed using Lipofectamine™ 3000 according to the manufacturer's instructions (Cat. 100022052, Thermo Fisher Scientific, Waltham, MA, USA). Colonies of geneticin-resistant cells were selected by adding G418 (800 μg/mL, Sigma) to the culture medium. The HEK293-pCMV-AC-GFP vector (HEK293-Vector) cells were used as a mock-transfection group.
Intracellular calcium mobilization was measured using the Calcium Flux Assay Kit (Cat. ab233472, abcam) in response to different concentrations of each peptide. The percentage increase was calculated relative to basal fluorescence intensity. The experiment was performed in triplicate.

HEK293-GnRHR cells [3] = biological target: T1, HEK293-GnRHR cells; assay: CRE-luciferase reporter assay; assay type: cell-based; settings: 100 nM, 24 h
Protocol: as §1
The HEK293-pCMV6-AC-GFP and HEK293-GnRHR cells (4×10^4 cells/well) were grown in 96-well plates and co-transfected with a luciferase reporter plasmid containing a cAMP response element (CRE) using Lipofectamine 3000 (Life Technologies). The transfected cells were exposed to different concentrations of peptide for 24 h, and the promoter activity was measured by a dual-luciferase reporter assay system (BPS Bioscience). The firefly and Renilla luciferase activities were measured using a microplate luminometer (Thermo, Varioskan LUX Multimode Microplate Reader). The calculation of relative luciferase activities involved the normalization of the firefly luciferase activity […].

HEK293-Vector cells = assay: CRE-luciferase reporter assay, mock-transfected cells; assay type: cell-based, human
Protocol: as §1, with “group. […] The transfected cells were exposed to different concentrations of peptide for 24 h, and the promoter activity was measured by a dual-luciferase reporter assay system (BPS Bioscience). The firefly and Renilla luciferase activities were measured using a microplate luminometer (Thermo, Varioskan LUX Multimode Microplate Reader). […]” for “group.”

Compound: CCNC(=O)[C@@H]1CCCN1C(=O)[C@H](CCCNC(=N)N)NC(=O)[C@H](CC(C)C)NC(=O)[C@@H](CC(C)C)NC(=O)[C@H](Cc1ccc(O)cc1)NC(=O)[C@H](CO)NC(=O)[C@H](Cc1c[nH]c2ccccc12)NC(=O)[C@H](Cc1c[nH]cn1)NC(=O)[C@@H]1CCC(=O)N1 [LA, Leuprolide acetate, reference compound]
- expression of c-Myc in tumor tissue [1]: significantly downregulated
- expression of p-AKT in tumor tissue [1]: significantly downregulated
- expression of p-ERK1/2 in tumor tissue [1]: significantly downregulated
- calcium flux (HEK293-GnRHR cells [2]): more potent effect of calcium flux in HEK293-GnRHR cells than in HEK293-Vector cells
- CRE-derived reporter gene activity (HEK293-GnRHR cells [3]): induced CRE-derived reporter gene activity
- CRE-luciferase activity (HEK293-Vector cells): no significant change
